The results in this text go back to patent publication US5728686A, “Alkylxanthine phosphonates and alkylxanthine phosphine oxides and their use as pharmaceuticals” (Hoechst Aktiengesellschaft, priority 1996, dated 1998).

≈ marks a conversion by molar mass, not a printed value.

Experiment [1] has as its system muscle group (gastrocnemius, plantaris and soleus) of the immobilized right rear extremity. Briefly: rat muscle function test: direct electrical stimulation of muscle group after 3 weeks' immobilization. In kind it is in vivo, male Wistar rats. The settings on record: isotonic stimulation; oral, 1x per day for 3 weeks, as a rule 25 mg/kg; control approx. -25%; ≤-12% classified as active. An outline of the steps: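 Male Wistar rats (about 300 g) had the right hindlimb immobilized in a plastic cast for 3 weeks while dosed orally once daily, usually 25 mg/kg in carboxymethylcellulose. Under pentobarbital, the gastrocnemius/plantaris/soleus group was stimulated directly: isometric force (0.5N preload, 15 min) as area-under-curve, and isotonic work (body-weight preload, 15 min) in J; results as Δ% immobilized vs contralateral muscle.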

Experiment [2] has as its system isolated guinea pig trachea, agonist substance P. The experiment in a line: antagonist of substance P-induced contraction of isolated guinea pig trachea. Format: cell-based. The settings on record: Cavia porcellus, individual doses, 37° C., read-out: Anticontractile action (trachea), SP antagonism: concentration range for dilatation corresponding to ED50 range.
The test system of the next experiment is phosphodiesterase III. The experiment in a line: inhibition of phosphodiesterase III activity. Format: biochemical. The settings on record: at 100 μM. The protocol: 5. Inhibition of phosphodiesterase III activity
The test is carried out using phosphodiesterase from Boehringer Mannheim (Mannheim, Germany), Order No. 108 243 according to the method of T. SAEKI, I. SAITO, Biochem. Pharm. 46, No. 5, […], pages 833-839.
All numerical values are indicated in % inhibition of the enzyme activity at 100 μM of the corresponding compound of the formula I.

As to `CCOP(=O)(CCCn1cnc2c1c(=O)[nH]c(=O)n2C)OCC` [Example 2, Diethyl [4-(3-methylxanthin-7-yl)propyl]phosphonate], the “Work (performed work, right/left difference)” value in experiment [1] was “+5 Δ %”. In experiment [2], the EC50 fell in the range of 10 to 30 µg/mL (≈ 29 to 87.1 µM). Moreover, in the experiment with phosphodiesterase III, the “PDE III Inhibition” value is reported as 65%.
